Measured values from PubChem BioAssay AID248 (DTP/NCI, 2004).
“And” between values parts separate entries of the source, which are not always exact repeats. Identical values can stand only once. Inconclusive results and toxic doses are left out. Rule as the data show it: active = T/C of 150% or more; inactive = T/C below 125%.

Test system: L1210 leukemia ip in BDF1 mice, survival T/C
Assay: NCI In Vivo Anticancer Drug Screen. Data for tumor model L1210 Leukemia (intraperitoneal) in B6D2F1 (BDF1) mice
Conditions: endpoint: mean survival time, higher = longer survival
Procedure, shortened: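 Transplantable tumor model; survival measured in treated vs vehicle control mice. Value = treated/control.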

[1] = dose: 75.0 mg/kg/injection, schedule: Q01DX001 (ip), vehicle: saline
[2] = dose: 150.0 mg/kg/injection, schedule: Q01DX001 (ip), vehicle: saline
[3] = dose: 300.0 mg/kg/injection, schedule: Q01DX001 (ip), vehicle: saline
[4] = dose: 100.0 mg/kg/injection, schedule: Q01DX009 (ip), vehicle: Klucel (hydroxypropylcellulose) (HPC)
[5] = dose: 200.0 mg/kg/injection, schedule: Q01DX009 (ip), vehicle: Klucel (hydroxypropylcellulose) (HPC)
[6] = dose: 50.0 mg/kg/injection, schedule: Q04DX002 (ip), vehicle: Klucel (hydroxypropylcellulose) (HPC)
[7] = dose: 100.0 mg/kg/injection, schedule: Q04DX002 (ip), vehicle: Klucel (hydroxypropylcellulose) (HPC)
[8] = dose: 200.0 mg/kg/injection, schedule: Q04DX002 (ip), vehicle: Klucel (hydroxypropylcellulose) (HPC)
[9] = dose: 12.5 mg/kg/injection, schedule: Q04DX002 (ip), vehicle: saline
[10] = dose: 25.0 mg/kg/injection, schedule: Q04DX002 (ip), vehicle: saline
[11] = dose: 100.0 mg/kg/injection, schedule: Q01DX001 (ip), vehicle: saline
[12] = dose: 200.0 mg/kg/injection, schedule: Q01DX001 (ip), vehicle: saline
[13] = dose: 400.0 mg/kg/injection, schedule: Q01DX001 (ip), vehicle: saline
[14] = dose: 100.0 mg/kg/injection, schedule: Q01DX001 (ip), vehicle: saline with Tween-80
[15] = dose: 200.0 mg/kg/injection, schedule: Q01DX001 (ip), vehicle: saline with Tween-80
[16] = dose: 400.0 mg/kg/injection, schedule: Q01DX001 (ip), vehicle: saline with Tween-80
[17] = dose: 25.0 mg/kg/injection, schedule: Q01DX009 (ip), vehicle: Klucel (hydroxypropylcellulose) (HPC)
[18] = dose: 100.0 mg/kg/injection, schedule: Q01DX009 (ip), vehicle: saline with Tween-80

Measured: T/C

C=C(C)CN1C(=O)c2ccccc2C1=O
inactive: dose: 25.0 mg/kg/injection, schedule: Q01DX009 (ip), vehicle: gum acacia 94 % of control | dose: 50.0 mg/kg/injection, schedule: Q01DX009 (ip), vehicle: gum acacia 96 % of control | dose: 100.0 mg/kg/injection, schedule: Q01DX009 (ip), vehicle: gum acacia 88 % of control | dose: 100.0 mg/kg/injection, schedule: Q04DX003 (ip), vehicle: gum acacia 108 % of control | dose: 200.0 mg/kg/injection, schedule: Q04DX003 (ip), vehicle: gum acacia 97 % of control | dose: 400.0 mg/kg/injection, schedule: Q04DX003 (ip), vehicle: gum acacia 93 % of control

C[N+]1(C)C2CCCC1CC(=O)NC2 (stereo unspecified)
inactive: [1] 107 % of control | [2] 104 % of control | [3] 112 % of control

CC(C)(COC(=O)COc1ccc(Cl)cc1Cl)[N+](=O)[O-]
inactive: [4] 97 % of control | [5] 92 % of control

O=C1c2ccccc2-c2ccc(-c3ccccc3)c3cccc1c23
inactive: [6] 105 % of control | [7] 102 % of control | [8] 98 % of control | dose: 200.0 mg/kg/injection, schedule: Q04DX002 (ip), vehicle: saline with Tween-80 105 % of control | dose: 400.0 mg/kg/injection, schedule: Q04DX002 (ip), vehicle: saline with Tween-80 98 % of control

Clc1ccc(C2CC3(CC(c4ccc(Cl)cc4)N2)SSC2(CC(c4ccc(Cl)cc4)NC(c4ccc(Cl)cc4)C2)S3)cc1 (stereo unspecified)
inactive: [4] 98 % of control | [5] 108 % of control | dose: 400.0 mg/kg/injection, schedule: Q01DX009 (ip), vehicle: Klucel (hydroxypropylcellulose) (HPC) 98 % of control

Cc1[nH]nc(-c2cccnc2)c1N=NN(C)C
inactive: [1] 110 % of control | [2] 106 % of control | [3] 111 % of control

C=CC[N+](CCO)(CCO)CCCCCCCCCCCCCCCCCC
inactive: [9] 102 % of control | [10] 97 % of control

CCCCC(=O)N1C(=O)Cc2ccccc21
inactive: [6] 97 % of control | [7] 97 % of control | [8] 97 % of control

C=CCSCn1ncc2ccc([N+](=O)[O-])cc21
inactive: [11] 94 % of control | [12] 92 % of control | [13] 96 % of control

CCCCSC1=CC(=O)c2ccccc2C1=O
inactive: dose: 12.5 mg/kg/injection, schedule: Q04DX003 (ip), vehicle: Klucel (hydroxypropylcellulose) (HPC) 104 % of control

O=C1/C(=C2\CCc3ccccc32)Cc2ccccc21
inactive: [9] 99 % of control | [10] 96 % of control | dose: 50.0 mg/kg/injection, schedule: Q04DX002 (ip), vehicle: saline 96 % of control

O=C(COC(=O)c1ccccc1Br)c1ccc(-c2ccccc2)cc1
inactive: [11] 94 % of control | [12] 100 % of control | [13] 91 % of control

CCOC(=O)CCSCCC(=O)OCC
inactive: [14] 109 % of control | [15] 101 % of control | [16] 101 % of control

O=C1CNC(c2ccccc2)c2cc(Cl)ccc2N1 (stereo unspecified)
inactive: [17] 101 % of control | [4] 92 % of control | [5] 87 % of control

O=C(O)C1CCCS1(=O)=O (stereo unspecified)
inactive: dose: 100.0 mg/kg/injection, schedule: Q04DX003 (ip), vehicle: saline 96 % of control | dose: 200.0 mg/kg/injection, schedule: Q04DX003 (ip), vehicle: saline 94 % of control | dose: 400.0 mg/kg/injection, schedule: Q04DX003 (ip), vehicle: saline 88 % of control

CC(=O)OCC1CC2CC(O)C1C2 (stereo unspecified)
inactive: dose: 75.0 mg/kg/injection, schedule: Q01DX001 (ip), vehicle: acetone 102 % of control

CN1C2CCC1CN(Cc1ccccc1)C2
inactive: dose: 12.5 mg/kg/injection, schedule: Q01DX009 (ip), vehicle: saline 103 % of control | dose: 12.5 mg/kg/injection, schedule: Q04DX003 (ip), vehicle: saline 97 % of control | dose: 25.0 mg/kg/injection, schedule: Q01DX009 (ip), vehicle: saline 101 % of control | dose: 25.0 mg/kg/injection, schedule: Q04DX003 (ip), vehicle: saline 101 % of control | dose: 50.0 mg/kg/injection, schedule: Q01DX009 (ip), vehicle: saline 101 % of control | dose: 50.0 mg/kg/injection, schedule: Q04DX003 (ip), vehicle: saline 98 % of control

CCOC(=O)/C=C/c1c(Cl)nc2ccccn2c1=O
inactive: [14] 96 % of control | dose: 100.0 mg/kg/injection, schedule: Q01DX009 (ip), vehicle: saline 90 % of control | [15] 94 % of control | dose: 200.0 mg/kg/injection, schedule: Q01DX009 (ip), vehicle: saline 90 % of control | [16] 92 % of control | dose: 400.0 mg/kg/injection, schedule: Q01DX009 (ip), vehicle: saline 95 % of control

CC(C)(C)C1=CC(=O)C(Br)=C(N2C3C4CCC(C4)C32)C1=O (stereo unspecified)
inactive: dose: 100.0 mg/kg/injection, schedule: Q01DX001 (ip), vehicle: Klucel (hydroxypropylcellulose) (HPC) 110 % of control | dose: 200.0 mg/kg/injection, schedule: Q01DX001 (ip), vehicle: Klucel (hydroxypropylcellulose) (HPC) 96 % of control | dose: 400.0 mg/kg/injection, schedule: Q01DX001 (ip), vehicle: Klucel (hydroxypropylcellulose) (HPC) 94 % of control

O=C(O)c1cc(Br)cc(I)c1Cl
inactive: [7] 102 % of control | [8] 94 % of control

[F][Sn]([c]1ccc(Cl)cc1)([c]1ccc(Cl)cc1)[c]1ccc(Cl)cc1
inactive: dose: 0.18 mg/kg/injection, schedule: Q04DX003 (ip), vehicle: other 97 % of control | dose: 0.37 mg/kg/injection, schedule: Q04DX003 (ip), vehicle: other 101 % of control | dose: 0.75 mg/kg/injection, schedule: Q04DX003 (ip), vehicle: other 93 % of control | dose: 1.5 mg/kg/injection, schedule: Q04DX003 (ip), vehicle: other 100 % of control

C[n+]1ccccc1CCC(=O)Nc1ccccc1
inactive: [18] 87 % of control

O=[N+]([O-])c1cccc(CO)c1-c1c(CO)cccc1[N+](=O)[O-]
inactive: [18] 101 % of control | dose: 200.0 mg/kg/injection, schedule: Q01DX009 (ip), vehicle: saline with Tween-80 102 % of control | dose: 400.0 mg/kg/injection, schedule: Q01DX009 (ip), vehicle: saline with Tween-80 101 % of control

O=C(N/C=C/NC(=O)Nc1ccc([N+](=O)[O-])cc1)Nc1ccc([N+](=O)[O-])cc1
inactive: dose: 100.0 mg/kg/injection, schedule: Q04DX003 (ip), vehicle: Klucel (hydroxypropylcellulose) (HPC) 100 % of control | dose: 200.0 mg/kg/injection, schedule: Q04DX003 (ip), vehicle: Klucel (hydroxypropylcellulose) (HPC) 89 % of control | dose: 400.0 mg/kg/injection, schedule: Q04DX003 (ip), vehicle: Klucel (hydroxypropylcellulose) (HPC) 92 % of control

CC(C)C(C)C(N)C(=O)O (stereo unspecified)
inactive: dose: 100.0 mg/kg/injection, schedule: Q01DX001 (ip), vehicle: other 101 % of control | dose: 200.0 mg/kg/injection, schedule: Q01DX001 (ip), vehicle: other 95 % of control | dose: 400.0 mg/kg/injection, schedule: Q01DX001 (ip), vehicle: other 106 % of control

O=S(=O)(C(Cl)Cl)C(Cl)(Cl)S(=O)(=O)C(Cl)Cl
inactive: [17] 96 % of control | dose: 50.0 mg/kg/injection, schedule: Q01DX009 (ip), vehicle: Klucel (hydroxypropylcellulose) (HPC) 102 % of control | [4] 94 % of control and 90 % of control
